From publication PMC10197068 (Bioconjugate Chemistry, 2023)
Where “and” joins values, the source holds several entries; their conditions need not be identical. Identical values can stand only once. One block for each compound: values may come before it.

Columns and labels:
[1] = test system: G1 (Na+) monomeric HTelo G4 DNA, AGGG(TTAGGG)3; experiment: CD melting with G1 (Na+); assay type: binding, human; details: CD melting at 295 nm, 25 to 95 °C at 2 °C/min; 100 mM NaCl, 10 mM Li cacodylate, pH 7.3; [G4 unit] 6 μM, [salphen unit] 12 μM
Protocol: (§1) Next, the DNA binding properties of the monomeric and dimeric compounds were studied. […] The following notation is used: […] The CD melting experiments were conducted solely with Na^+ stabilized DNA, which forms an antiparallel topology in solution (cf., in the presence of K^+ a mixture of topologies is observed). During the assay the temperature was increased from 25 to 95 °C upon which the intensity of signals with negative ellipticity at ca. 265 nm and positive ellipticity at ca. 295 (characteristic of an antiparallel G4 structure) decreased-see Figure 4a. This indicates the expected unfolding of the G4 DNA structure as the temperature increases. The changes in intensity were subsequently used to produce the corresponding melting curves (Figure 4b) for each sequence in the absence and presence of the different compounds under study. From these curves, the ΔTm values for the different sequences and compounds were determined, and the results are summarized in Figure 4c (see Supplementary Table 1 for values). […] G-Quadruplex oligonucleotides were purchased from Eurogentec (Belgium), and CT-DNA was purchased from Sigma-Aldrich. […] Prior to use, the DNA stock solutions were annealed by heating at 95 °C for 5 min and then cooling to room temperature overnight. Experiments were carried out on a Jasco J-810 spectrophotometer using a 1 cm quartz cuvette. Temperature was controlled using a Peltier module. The signal at 295 nm was monitored as temperature was increased for 25 to 95 °C at a rate of 2 °C/min. CD melting experiments were carried out with the appropriate G4 DNA (100 mM NaCl, 10 mM Li cacodylate, pH 7.3). Sample preparation was carried out by combining stock solutions of ligand and DNA in the appropriate buffer. […] Melting temperatures were obtained by curve fitting in Graphpad Prism 8. The data was normalized and fitted to a variable slope Hill equation, and the melting temperature was defined at the temperature at which y = 0.5.

[2] = test system: G2T1 (Na+) dimeric HTelo G4 DNA, AGGG(TTAGGG)7; experiment: CD melting with G2T1 (Na+); assay type: binding, human; details: CD melting at 295 nm, 25 to 95 °C at 2 °C/min; 100 mM NaCl, 10 mM Li cacodylate, pH 7.3; [G4 unit] 6 μM (3 μM dimeric sequence), [salphen unit] 12 μM
Protocol: as §1

[3] = test system: G2T6 (Na+) dimeric HTelo G4 DNA, AGGG(TTAGGG)3(TTA)5(TTAGGG)4; experiment: CD melting with G2T6 (Na+); assay type: binding, human; details: CD melting at 295 nm, 25 to 95 °C at 2 °C/min; 100 mM NaCl, 10 mM Li cacodylate, pH 7.3; [G4 unit] 6 μM (3 μM dimeric sequence), [salphen unit] 12 μM
Protocol: as §1

[4] = test system: G1 (K+) monomeric HTelo G4 DNA; experiment: Emission titration with G1 (K+); assay type: binding, human; details: Table S2, unit not given, ligand 2 μM, 100 mM KCl, 10 mM Li cacodylate, pH 7.3, exc 440 nm, em 590 nm, triplicate
Protocol: (§2) Next, emission titrations were carried out with the emissive Pt^II compounds M2 and D3–8 and G4/duplex DNA to obtain association constants. Both Na^+ and K^+ stabilized monomeric and dimeric G4 DNA were investigated. Additionally, titrations were carried out with CT-DNA to evaluate the selectivity for G4 versus duplex DNA. Figure 5 summarizes the obtained results (see Figures S24–S37 and Table S2 for a full set of titration data). First discussed are the experiments conducted in Na^+ buffer, in which the G4 topology formed is antiparallel.[41] […] As discussed previously, this could potentially be caused by a “sandwiched” binding mode in which the metal-salphen complex sits between two G-quadruplex units. For dimeric metal-salphen complexes D3–8, however, there are several differences when compared to the CD melting studies. […] Upon increasing the linker length to a two-amino-acid sequence (RR and KK for compounds D4 and D5, respectively), larger Ka values were obtained with minimal change to the pattern of selectivity. […] Increasing the linker length to an eight-amino-acid sequence (RRRRRRRR) led to a similar stabilization of G2T6, while G1 stabilization increased.
(§3) G-Quadruplex oligonucleotides were purchased from Eurogentec (Belgium), and CT-DNA was purchased from Sigma-Aldrich. Stock solutions were prepared via dilution in the appropriate buffers to concentrations of 300–400 μM determined by UV–vis measurements in which increasing amounts of DNA were added to a cuvette and the absorbance at 260 nm recorded using an Agilent Cary UV 60 spectrometer. Prior to use, the DNA stock solutions were annealed by heating at 95 °C for 5 min and then cooling to room temperature overnight.
(§4) Experiments were carried out using a BMG Clariostar Microplate reader with Greiner Bio-One half-volume (100 μL/well) plates. Excitation was carried out at 440 nm and recorded from 500 to 700 nm in addition to a matrix scan at 590 nm. Titrations were carried out using G1, G2T1, and G2T6 (Na^+) G4 DNA (100 mM NaCl, 10 mM Li cacodylate, pH 7.3); G1, G2T1, and G2T6 (K^+) G4 DNA (100 mM KCl, 10 mM Li cacodylate, pH 7.3); and CT-DNA (100 mM KCl, 10 mM Li cacodylate, pH 7.3). Ligand concentration was kept constant at 2 μM, and the following DNA equivalents were tested: 0, 0.1, 0.2, 0.3, 0.4, 0.5, 0.75, 1, 1.5, 2, 3, and 5 (for CT-DNA 10× base pair equivalents were used, i.e., 1 to 50 BPE). Sample preparation was carried out by preparing stock solutions of double concentration ligand (4 μM) and DNA in the appropriate buffer, before 50 μL of each was added to the appropriate well and mixed. Experiments were conducted in triplicate and binding constants were obtained by curve fitting in Graphpad Prism 8 using eq 1.[46] [drawing 1] 1
(§5) Fluorescence response (y) was fitted against DNA concentration (x); R is the machine response, K is the association constant of ligand and DNA, L is the concentration of ligand, and n is the number of binding sites per DNA. The values of L and n were varied so that that the L was equal to the number of salphen units and n was equal to the number of G4 faces per DNA. The matrix scan results were used to plot the titration curves and 500–700 nm scan results were used to confirm that expected curve shapes and shifts were observed.

[5] = test system: G2T1 (K+) dimeric HTelo G4 DNA; experiment: Emission titration with G2T1 (K+); assay type: binding, human; details: Table S2, unit not given, ligand 2 μM, 100 mM KCl, 10 mM Li cacodylate, pH 7.3, exc 440 nm, em 590 nm, triplicate
Protocol: as §2, §3, §4, §5

[6] = test system: G2T6 (K+) dimeric HTelo G4 DNA; experiment: Emission titration with G2T6 (K+); assay type: binding, human; details: Table S2, unit not given, ligand 2 μM, 100 mM KCl, 10 mM Li cacodylate, pH 7.3, exc 440 nm, em 590 nm, triplicate
Protocol: as §2, §3, §4, §5

[7] = test system: G1 (Na+) monomeric HTelo G4 DNA; experiment: Emission titration with G1 (Na+); assay type: binding, human; details: Table S2, unit not given, ligand 2 μM, 100 mM NaCl, 10 mM Li cacodylate, pH 7.3, exc 440 nm, em 590 nm, triplicate
Protocol: as §2, §3, §4, §5

[8] = test system: G2T1 (Na+) dimeric HTelo G4 DNA; experiment: Emission titration with G2T1 (Na+); assay type: binding, human; details: Table S2, unit not given, ligand 2 μM, 100 mM NaCl, 10 mM Li cacodylate, pH 7.3, exc 440 nm, em 590 nm, triplicate
Protocol: as §2, §3, §4, §5

[9] = test system: G2T6 (Na+) dimeric HTelo G4 DNA; experiment: Emission titration with G2T6 (Na+); assay type: binding, human; details: Table S2, unit not given, ligand 2 μM, 100 mM NaCl, 10 mM Li cacodylate, pH 7.3, exc 440 nm, em 590 nm, triplicate
Protocol: as §2, §3, §4, §5

[10] = test system: CT-DNA (duplex DNA); experiment: Emission titration with duplex DNA; assay type: binding; details: CT-DNA up to 50 base pair equivalents; 100 mM KCl, 10 mM Li cacodylate, pH 7.3; ligand 2 μM
Protocol: Next, emission titrations were carried out with the emissive Pt^II compounds M2 and D3–8 and G4/duplex DNA to obtain association constants. Both Na^+ and K^+ stabilized monomeric and dimeric G4 DNA were investigated. Additionally, titrations were carried out with CT-DNA to evaluate the selectivity for G4 versus duplex DNA. Figure 5 summarizes the obtained results (see Figures S24–S37 and Table S2 for a full set of titration data). First discussed are the experiments conducted in Na^+ buffer, in which the G4 topology formed is antiparallel.[41] […] As discussed previously, this could potentially be caused by a “sandwiched” binding mode in which the metal-salphen complex sits between two G-quadruplex units. For dimeric metal-salphen complexes D3–8, however, there are several differences when compared to the CD melting studies. […] Upon increasing the linker length to a two-amino-acid sequence (RR and KK for compounds D4 and D5, respectively), larger Ka values were obtained with minimal change to the pattern of selectivity. […] Increasing the linker length to an eight-amino-acid sequence (RRRRRRRR) led to a similar stabilization of G2T6, while G1 stabilization increased. […]
as §3, with “Prior to use, the DNA stock solutions were annealed by heating at 95 °C for 5 min and then cooling to room temperature overnight.” left out
Experiments were carried out using a BMG Clariostar Microplate reader with Greiner Bio-One half-volume (100 μL/well) plates. Excitation was carried out at 440 nm and recorded from 500 to 700 nm in addition to a matrix scan at 590 nm. […]
Fluorescence response (y) was fitted against DNA concentration (x); R is the machine response, K is the association constant of ligand and DNA, L is the concentration of ligand, and n is the number of binding sites per DNA. […]

[11] = test system: G2T1 (DNA, G4) AGGGTTAGGGTTAGGGTTAGGGTTAGGGTTAGGGTTAGGGTTAGGG; experiment: CD melting at 295 nm; details: 100 mM NaCl, 10 mM Li cacodylate, pH 7.3, 3 μM DNA
[12] = test system: G2T6 (DNA, G4) AGGGTTAGGGTTAGGGTTAGGGTTATTATTATTATTATTAGGGTTAGGGTTAGGGTTAGGG; experiment: CD melting at 295 nm; details: 100 mM NaCl, 10 mM Li cacodylate, pH 7.3, 3 μM DNA
[13] = 6 μM compound (12 μM salphen units)

Structure (SMILES): C[N+](C)(C)CCOc1ccc2c(c1)[O][Pt][O]c1cc(OCC[N+](C)(C)C)ccc1C=Nc1ccccc1N=C2 [Compound M2, reference compound]
ΔTm G1 (Na+) [1]: 12.72 °C
ΔTm G2T1 (Na+) [2]: 21.67 °C and 21 °C
ΔTm G2T6 (Na+) [3]: 19.55 °C and 19 °C
Association constant G1 (K+), mean [4]: 2.00
Association constant G2T1 (K+), mean [5]: 0.80
Association constant G2T6 (K+), mean [6]: 1.44
Association constant G1 (Na+), mean [7]: 1.70
Association constant G2T1 (Na+), mean [8]: 1.70
Association constant G2T6 (Na+), mean [9]: 2.93
Ka for duplex DNA [10]: 7.31 × 10^4 M^–1

ΔTm [11, 13]: 16.3 °C
ΔTm [12, 13]: 13.8 °C
Structure (SMILES): C[N+](C)(C)CCOc1ccc(C=Nc2ccc(C(=O)NCc3cn(CC(=O)N[C@@H](CCCNC(=N)N)C(=O)N[C@@H](CCCCN)C(=O)N[C@@H](CCCCN)C(=O)N[C@@H](CCCNC(=N)N)C(=O)N[C@@H](Cn4cc(CNC(=O)c5ccc(N=Cc6ccc(OCC[N+](C)(C)C)cc6[O-])c(N=Cc6ccc(OCC[N+](C)(C)C)cc6[O-])c5)nn4)C(N)=O)nn3)cc2N=Cc2ccc(OCC[N+](C)(C)C)cc2[O-])c([O-])c1.[Pt+2].[Pt+2]

ΔTm ([11]; 12 μM compound): 16 °C
ΔTm ([12]; 12 μM compound): 17 °C
Structure (SMILES): C[N+](C)(C)CCOc1ccc(C=Nc2ccccc2N=Cc2ccc(OCC[N+](C)(C)C)cc2[O-])c([O-])c1.[Ni+2]

ΔTm [11, 13]: 14.6 °C
Structure (SMILES): C[N+](C)(C)CCOc1ccc(C=Nc2ccc(C(=O)NCc3cn(CC(=O)N[C@@H](CCCNC(=N)N)C(=O)N[C@@H](CCCNC(=N)N)C(=O)N[C@@H](Cn4cc(CNC(=O)c5ccc(N=Cc6ccc(OCC[N+](C)(C)C)cc6[O-])c(N=Cc6ccc(OCC[N+](C)(C)C)cc6[O-])c5)nn4)C(N)=O)nn3)cc2N=Cc2ccc(OCC[N+](C)(C)C)cc2[O-])c([O-])c1.[Pt+2].[Pt+2]

Structure (SMILES): C[N+](C)(C)CCOc1ccc2c(c1)[O][Ni][O]c1cc(OCC[N+](C)(C)C)ccc1C=Nc1ccccc1N=C2 [Compound M1, reference compound]
ΔTm G1 (Na+) [1]: 12.26 °C
ΔTm G2T1 (Na+) [2]: 16.58 °C and 16 °C
ΔTm G2T6 (Na+) [3]: 18.77 °C
